Common to all, as to experiment: biochemical
What all share (set-up): radiometric methyltransferase selectivity assay with tritiated SAM, per cent activity
Holding throughout (conditions): read-out: % of control remaining

One test concerns the target ASH1L (Homo sapiens, UniProt Q9NR48). In a few lines:
(§1)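 Radiometric methyltransferase assays with ³H-SAM and substrate near apparent Km, compound tested at 1 and 10 μM. Methyl incorporation into biotinylated substrate read by scintillation proximity after guanidine quench; no-compound = 100%, no-enzyme = 0% activity.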

Another test deals with DNMT1 (Homo sapiens, UniProt P26358). In a few lines:
as §1

The next test concerns the target T1, NSD3 (Homo sapiens, UniProt Q9BZ95).
T1 sequence (Q9BZ95 1-1437): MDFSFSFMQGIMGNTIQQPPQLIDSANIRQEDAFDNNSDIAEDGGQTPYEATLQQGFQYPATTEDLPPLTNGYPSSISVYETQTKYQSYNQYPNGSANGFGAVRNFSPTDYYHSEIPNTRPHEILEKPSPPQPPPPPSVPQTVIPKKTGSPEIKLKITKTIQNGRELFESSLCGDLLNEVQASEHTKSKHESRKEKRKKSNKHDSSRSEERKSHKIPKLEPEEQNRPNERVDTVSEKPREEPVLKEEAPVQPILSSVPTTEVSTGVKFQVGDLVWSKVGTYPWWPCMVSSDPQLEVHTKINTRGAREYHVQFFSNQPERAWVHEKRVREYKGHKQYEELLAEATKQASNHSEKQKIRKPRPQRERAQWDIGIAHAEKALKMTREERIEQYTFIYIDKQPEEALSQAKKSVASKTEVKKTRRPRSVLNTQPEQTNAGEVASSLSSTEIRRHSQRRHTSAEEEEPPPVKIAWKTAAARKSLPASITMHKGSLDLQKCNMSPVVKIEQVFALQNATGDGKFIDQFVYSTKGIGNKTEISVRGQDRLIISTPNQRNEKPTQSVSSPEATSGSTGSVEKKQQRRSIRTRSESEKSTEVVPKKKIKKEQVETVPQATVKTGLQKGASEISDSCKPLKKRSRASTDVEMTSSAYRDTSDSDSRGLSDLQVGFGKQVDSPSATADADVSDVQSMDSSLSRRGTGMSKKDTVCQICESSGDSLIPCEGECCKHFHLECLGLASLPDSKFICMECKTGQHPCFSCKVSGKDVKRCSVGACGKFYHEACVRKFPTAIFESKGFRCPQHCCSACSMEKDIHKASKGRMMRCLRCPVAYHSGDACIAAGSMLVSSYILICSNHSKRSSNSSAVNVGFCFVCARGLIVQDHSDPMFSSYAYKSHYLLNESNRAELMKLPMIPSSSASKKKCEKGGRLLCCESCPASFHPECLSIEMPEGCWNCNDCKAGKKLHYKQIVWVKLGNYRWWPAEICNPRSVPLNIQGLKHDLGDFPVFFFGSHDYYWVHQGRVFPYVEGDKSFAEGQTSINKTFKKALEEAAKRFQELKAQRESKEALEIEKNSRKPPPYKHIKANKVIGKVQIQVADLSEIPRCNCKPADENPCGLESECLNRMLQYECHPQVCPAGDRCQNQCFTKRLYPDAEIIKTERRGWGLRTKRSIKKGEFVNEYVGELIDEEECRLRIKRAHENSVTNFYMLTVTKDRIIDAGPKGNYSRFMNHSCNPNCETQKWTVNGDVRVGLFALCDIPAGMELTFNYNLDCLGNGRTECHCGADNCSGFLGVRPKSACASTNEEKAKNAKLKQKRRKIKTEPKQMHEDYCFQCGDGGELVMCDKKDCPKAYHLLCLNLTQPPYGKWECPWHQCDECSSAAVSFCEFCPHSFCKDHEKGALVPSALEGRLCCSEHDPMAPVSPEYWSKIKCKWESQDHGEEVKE
An outline of the steps:
as §1

In another test the target is METTL3-14 (Homo sapiens, UniProt Q86U44). In a few lines: as §1
Sequence of METTL3-14 (Q86U44 whole entry): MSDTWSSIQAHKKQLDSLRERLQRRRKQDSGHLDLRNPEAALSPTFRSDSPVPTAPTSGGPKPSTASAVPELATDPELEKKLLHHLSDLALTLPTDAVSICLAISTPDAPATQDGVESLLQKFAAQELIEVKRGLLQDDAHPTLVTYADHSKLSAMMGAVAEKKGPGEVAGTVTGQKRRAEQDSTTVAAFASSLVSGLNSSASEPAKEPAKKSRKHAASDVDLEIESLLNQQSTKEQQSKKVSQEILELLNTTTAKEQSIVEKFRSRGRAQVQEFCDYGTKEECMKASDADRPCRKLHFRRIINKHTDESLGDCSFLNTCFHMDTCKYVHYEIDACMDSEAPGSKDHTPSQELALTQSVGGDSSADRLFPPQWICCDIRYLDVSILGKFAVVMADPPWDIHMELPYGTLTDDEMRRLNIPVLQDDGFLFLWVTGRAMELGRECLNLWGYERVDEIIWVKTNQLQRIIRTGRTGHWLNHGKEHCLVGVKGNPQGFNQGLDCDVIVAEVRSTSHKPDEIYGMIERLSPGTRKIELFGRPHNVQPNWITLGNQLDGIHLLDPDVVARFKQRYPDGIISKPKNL
Sequence of METTL3-14 (Q9HCE5 whole entry partner): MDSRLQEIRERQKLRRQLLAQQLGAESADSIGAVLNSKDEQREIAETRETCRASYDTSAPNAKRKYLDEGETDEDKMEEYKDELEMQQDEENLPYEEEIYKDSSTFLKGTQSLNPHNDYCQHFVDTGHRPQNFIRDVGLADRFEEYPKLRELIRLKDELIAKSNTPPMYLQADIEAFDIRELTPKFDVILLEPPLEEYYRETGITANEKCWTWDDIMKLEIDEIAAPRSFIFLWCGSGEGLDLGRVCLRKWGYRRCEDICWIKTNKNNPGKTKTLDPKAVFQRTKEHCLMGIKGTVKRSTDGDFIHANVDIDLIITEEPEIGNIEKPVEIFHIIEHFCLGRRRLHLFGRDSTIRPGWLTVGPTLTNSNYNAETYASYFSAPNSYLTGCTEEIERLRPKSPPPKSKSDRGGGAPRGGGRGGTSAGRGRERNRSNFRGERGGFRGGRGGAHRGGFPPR
In the next test the target is SUV39H2 (Homo sapiens, UniProt Q9H5I1). An outline of the steps: as §1
Sequence of SUV39H2 (Q9H5I1 whole entry): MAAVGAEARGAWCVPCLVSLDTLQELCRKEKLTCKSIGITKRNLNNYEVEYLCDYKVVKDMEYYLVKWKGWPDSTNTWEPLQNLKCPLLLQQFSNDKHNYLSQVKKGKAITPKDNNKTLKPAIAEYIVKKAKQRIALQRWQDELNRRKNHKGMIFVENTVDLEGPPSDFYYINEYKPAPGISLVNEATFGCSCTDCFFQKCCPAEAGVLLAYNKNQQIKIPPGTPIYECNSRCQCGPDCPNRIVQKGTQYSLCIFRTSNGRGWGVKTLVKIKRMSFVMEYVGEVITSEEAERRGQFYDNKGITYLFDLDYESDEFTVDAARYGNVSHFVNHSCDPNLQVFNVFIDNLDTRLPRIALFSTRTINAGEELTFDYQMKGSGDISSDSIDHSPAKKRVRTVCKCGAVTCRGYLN
Another test concerns the target PRMT8 (Homo sapiens, UniProt Q9NR22). In a few lines: as §1

Sequence of DNMT1 (P26358 whole entry): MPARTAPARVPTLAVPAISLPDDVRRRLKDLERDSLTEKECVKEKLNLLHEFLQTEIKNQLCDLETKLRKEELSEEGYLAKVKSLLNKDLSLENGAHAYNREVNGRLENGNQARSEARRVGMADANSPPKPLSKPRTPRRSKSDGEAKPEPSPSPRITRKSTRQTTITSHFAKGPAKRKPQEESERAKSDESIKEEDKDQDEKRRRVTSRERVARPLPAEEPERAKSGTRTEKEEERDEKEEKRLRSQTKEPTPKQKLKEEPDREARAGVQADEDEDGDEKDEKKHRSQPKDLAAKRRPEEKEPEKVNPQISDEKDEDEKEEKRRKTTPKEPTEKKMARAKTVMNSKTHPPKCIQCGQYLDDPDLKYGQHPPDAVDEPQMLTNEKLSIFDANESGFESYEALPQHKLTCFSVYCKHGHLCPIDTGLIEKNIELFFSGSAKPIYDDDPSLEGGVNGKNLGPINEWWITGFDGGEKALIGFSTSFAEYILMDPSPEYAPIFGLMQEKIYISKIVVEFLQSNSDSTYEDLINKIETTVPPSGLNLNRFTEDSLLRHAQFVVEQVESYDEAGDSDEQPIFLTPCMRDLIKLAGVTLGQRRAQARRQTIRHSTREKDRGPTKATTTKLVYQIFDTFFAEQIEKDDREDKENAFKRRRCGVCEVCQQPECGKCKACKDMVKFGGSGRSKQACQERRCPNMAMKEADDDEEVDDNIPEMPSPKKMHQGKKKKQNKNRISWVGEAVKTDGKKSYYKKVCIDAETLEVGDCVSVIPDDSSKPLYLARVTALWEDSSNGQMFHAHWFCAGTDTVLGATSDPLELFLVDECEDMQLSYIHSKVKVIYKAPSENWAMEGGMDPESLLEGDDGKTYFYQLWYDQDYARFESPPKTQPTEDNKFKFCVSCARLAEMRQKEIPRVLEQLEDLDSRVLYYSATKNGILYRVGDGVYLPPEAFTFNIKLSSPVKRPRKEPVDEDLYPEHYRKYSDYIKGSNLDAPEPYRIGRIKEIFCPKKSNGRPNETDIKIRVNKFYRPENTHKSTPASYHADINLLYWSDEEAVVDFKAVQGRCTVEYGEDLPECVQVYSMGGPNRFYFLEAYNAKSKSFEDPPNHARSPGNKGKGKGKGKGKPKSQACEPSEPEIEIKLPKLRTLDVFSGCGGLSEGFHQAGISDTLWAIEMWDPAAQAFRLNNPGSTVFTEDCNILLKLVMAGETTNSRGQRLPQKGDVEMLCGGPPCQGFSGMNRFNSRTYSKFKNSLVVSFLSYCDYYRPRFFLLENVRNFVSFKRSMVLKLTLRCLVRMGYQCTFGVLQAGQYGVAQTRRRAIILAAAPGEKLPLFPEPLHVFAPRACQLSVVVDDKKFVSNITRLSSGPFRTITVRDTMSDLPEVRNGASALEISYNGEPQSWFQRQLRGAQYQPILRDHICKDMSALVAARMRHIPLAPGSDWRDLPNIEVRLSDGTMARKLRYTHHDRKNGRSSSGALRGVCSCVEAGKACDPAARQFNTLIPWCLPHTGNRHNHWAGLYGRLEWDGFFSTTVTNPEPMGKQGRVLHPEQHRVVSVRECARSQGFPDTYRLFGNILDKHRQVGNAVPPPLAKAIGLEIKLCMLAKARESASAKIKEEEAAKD
Sequence of PRMT8 (Q9NR22 whole entry): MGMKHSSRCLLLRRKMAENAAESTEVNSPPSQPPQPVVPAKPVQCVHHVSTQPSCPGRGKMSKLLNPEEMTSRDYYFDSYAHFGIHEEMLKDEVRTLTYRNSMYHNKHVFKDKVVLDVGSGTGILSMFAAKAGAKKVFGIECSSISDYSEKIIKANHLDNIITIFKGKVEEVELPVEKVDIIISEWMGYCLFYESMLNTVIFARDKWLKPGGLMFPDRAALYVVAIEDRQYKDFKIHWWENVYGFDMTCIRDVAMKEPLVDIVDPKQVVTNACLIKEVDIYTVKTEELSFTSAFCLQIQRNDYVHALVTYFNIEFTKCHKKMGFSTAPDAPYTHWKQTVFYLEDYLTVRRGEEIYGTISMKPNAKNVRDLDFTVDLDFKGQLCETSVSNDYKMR

Take `CC1(C)O[C@@H]2[C@H](O1)[C@@H](CSCCCCNCc1cccc(-c3ccc(Cl)cc3)c1)O[C@H]2n1cnc2c(N)ncnc21` [SGC8158N]: the remaining activity at 1 µM on ASH1L is 99%; on DNMT1, 94%; on NSD3 it was 100%; at METTL3-14 it was 87%; at SUV39H2, 103%; on PRMT8 it was 97%. In addition, the remaining activity at 10 µM at ASH1L is 102%; on DNMT1, 99%; on NSD3 it was 97%; on METTL3-14 it was 73%; on SUV39H2, 78%; on PRMT8, 97%.
For `Nc1ncnc2c1ncn2[C@@H]1O[C@H](CSCCCCNCc2cccc(-c3ccc(Cl)cc3)c2)[C@@H](O)[C@H]1O` [SGC8158], the remaining activity at 1 µM at ASH1L was found to be 96%; on DNMT1, 98%; at NSD3, 97%; at METTL3-14, 97%; at SUV39H2, 103%; on PRMT8, 92%. Moreover, the remaining activity at 10 µM on ASH1L amounted to 97%; on DNMT1, 91%; on NSD3, 95%; at METTL3-14, 84%; at SUV39H2 it was 102%; on PRMT8, 45%.

Values taken from paper PMC7224190, “Pharmacological inhibition of PRMT7 links arginine monomethylation to the cellular stress response” (Nature Communications, 2020).
